The values that follow come from PMC10454726 (International Journal of Molecular Sciences, 2023).

For assay [1], the system named is streptozotocin-induced diabetic rats. The assay can be described thus: Animal weight, food and water consumption in streptozotocin-induced diabetic rats. It is filed as in vivo, Wistar rat. On the procedure: Six female (three for each compound: FC-114 and FC-122) (220 ± 10 g, for the acute toxicity assay) and forty male (215 ± 20 g, for the pharmacologic study) albino Wistar rats were acquired from the Isolation and Animal Facility Unit, Facultad de Estudios Superiores Cuautitlán (FESC), Universidad Nacional Autónoma de México (UNAM). They were kept in standard polypropylene boxes under controlled temperature (24 ± 4 °C) on a 12 h light/dark cycle and provided conventional food (formula 5001, Rat Chow) and purified water ad libitum. […] At the end of the experiment, the animals were taken to the humanitarian endpoint by the intraperitoneal (ip) administration of 75 mg/kg of sodium pentobarbital to perform a necropsy in the bioterium of FESC, UNAM. During the necropsy, blood serum was extracted to quantify glucose, triacylglycerides, cholesterol, and insulin. The study was conducted based on the guidelines of the Declaration of Helsinki and approved by the Institutional Review Board: Internal Committee for the Care and Use of Experimentation Animals (CICUAE, according to the initials in Spanish, C23_02 on March 2023) of the FESC UNAM (Mexico). It complies with the Mexican norm for this matter (NOM-062-ZOO-1999, Technical Specifications for the Production, Care, and Use of Laboratory Animals, SAGARPA), as well as the Guide for the Care and Use of Laboratory Animals of the National Research Council and National Institutes of Health (NIH Publications No. 8023, revised 1978).
After a week of acclimation, 35 male Wistar rats were given a single intraperitoneal dose of STZ (Sigma Chemical Co. Toluca, Estado de México, Mexico) at a dosage of 45 mg/kg of body weight, after fasting for 12 h overnight with free access to water. To prevent initial drug-induced hypoglycemia mortality, these animals were given a 10% sucrose solution 24 h after administration. STZ was dissolved in 0.1 M of sodium citrate buffer (pH 4.5) and administered in a final volume of 5 mL/kg. A week after STZ injection, diabetes in streptozotocin rats was confirmed by measuring fasting blood glucose (by glucose oxidase method). Animals with a blood glucose (tail vein) above 126 mg/dL were considered diabetic and used for the experiment to create groups 2, 3, 4, 5, 6, and 7 [1, 13]. Blood glucose levels were measured using a glucometer (Accu-Chek Active, Roche, Mannheim, Germany) and reactive strips (Accu-Chek Active Glucose test strips, Roche). The presence of hyperglycemia and insulin level confirmed a model very similar to T2D in humans. For the pharmacological study, the final number of animals was 35 male rats, with 3 rats being sacrificed during the treatment stage. One was administered with FC-114 and two with acarbose. The first rat was damaged during oral glucose administration in the OGTT at week 5, and the other rats had gastrointestinal complications in week 7.
(§1) The diabetic animals in group 2 (untreated) were given 4% v/v aqueous EtOH solution (vehicle of treatments) in a volume of 6.5 mL/kg body weight. The other groups (3–7) received different treatments for 14 days (weeks 5 to 7). […] All of the treatments were at equimolar doses of PIO and adjusted to the weekly weight of each rat. […] The commercial PIO tablet (30 mg) was crushed in 7.5 mL of vehicle and given to each animal in 4.0 mg/mL of suspension. The FC-114 and FC-122 suspensions were created at 6.2 and 6.0 mg/mL, respectively. The commercial acarbose tablet (50 mg) was crushed in 7.5 mL of the vehicle and given to each animal in a suspension of 6.6 mg/mL. Each suspension was used within 2 days of its preparation, and the administration volume was near to 2.5 mL for each rat.

The test system is the same in assay [2]. The assay is described as follows: Serum determinations (insulin, cholesterol) in streptozotocin-induced diabetic rats. Type of assay: in vivo, Wistar rat. As to conditions: 14 days, FC-114 51.3 mg/kg/day. On the procedure: To obtain serum from each rat under anesthesia, a 10 mL blood sample was taken via cardiac puncture of the exposed heart. After being left at room temperature for 10 min, the blood samples were centrifuged at 2500 rpm (1200× g) for 10 min to obtain the serum. The resulting serum was then frozen at −70 °C until needed. Prior to usage, the serum samples were thawed at room temperature.
as §1
The blood determinations were carried out using different kits: glucose (1001191, Spinreact, Girona, Spain, 1045), TAG (41032, Spinreact, LIQ557), insulin (RAB09A-1EA-KC, Sigma, 11092020), total cholesterol (41020, Spinreact, LIQ384), and HDL cholesterol (1001095, Spinreact, H166). Mathematically, the c-LDL cholesterol was determined by subtracting the HDL fraction from the total cholesterol.

The subject of the next assay is PTP1B. Set-up: method as in PMID 34299651. As to conditions: cited from earlier work.
For the next assay, the target named is T1, PTP1B1–400 (Homo sapiens, UniProt P18031).
T1 construct: we performed an enzyme kinetic assay for PTP1B1–400
T1 sequence (P18031 1-400): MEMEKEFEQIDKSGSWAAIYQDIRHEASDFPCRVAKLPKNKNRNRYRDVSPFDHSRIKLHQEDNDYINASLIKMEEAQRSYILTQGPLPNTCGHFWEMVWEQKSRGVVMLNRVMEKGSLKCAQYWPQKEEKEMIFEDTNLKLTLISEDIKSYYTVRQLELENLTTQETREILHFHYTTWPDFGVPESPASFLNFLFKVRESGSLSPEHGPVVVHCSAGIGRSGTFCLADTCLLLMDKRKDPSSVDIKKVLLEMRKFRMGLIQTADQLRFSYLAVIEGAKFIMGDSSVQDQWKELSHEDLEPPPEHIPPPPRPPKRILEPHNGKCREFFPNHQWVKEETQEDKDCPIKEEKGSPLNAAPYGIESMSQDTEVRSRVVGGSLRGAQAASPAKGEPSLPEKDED
The assay is described as follows: Enzyme kinetic assay for PTP1B1–400 (pNPP substrate). It is filed as biochemical. From the text: As pointed out in this paper’s introduction, we have reported the PTP1B inhibitory activity of FC-114 and FC-122 [53]. […] Nevertheless, the inhibition type of FC-122 remained unknown to date. Therefore, we performed an enzyme kinetic assay for PTP1B1–400 [59, 60, 61] using p-nitrophenyl phosphate (pNPP) as substrate at different concentrations as well as the inhibitor. Figure 2C depicts the double reciprocal plot of Lineweaver-Burk, showing the effect of FC-122 on the PTP1B activity.
The kinetic studies for PTP1B and α-glucosidase were carried out under the same conditions described in the references.

Setting [3] is: after 7 days of treatment (weeks 5 to 6).

Molecules are shown by their SMILES.

Regarding `CC1(C)c2[nH]c3ccc(C(F)(F)F)cc3c2C[C@]2(C)[C@H]3C(=O)C=C4[C@@H]5C[C@@](C)(C(=O)O)CC[C@]5(C)CC[C@@]4(C)[C@]3(C)CC[C@@H]12` [FC-114], in assay [1] (14 days of treatment, weeks 5 to 7), the “animal weight compared to the untreated group (T2D)” value is on record as “difference in weight”. For the same compound, the food intake entry in assay [1] (setting [3]) was “maintained their increased food consumption”. Moreover, the food intake entry in assay [1] (after 14 days of treatment (weeks 6 to 7)) is given as “tended to decrease toward normal levels”. Besides, in assay [2], the HDL levels entry was “without affecting”, the “calculated LDL cholesterol” value is reported as “decreased”, the serum insulin levels entry is on record as “dramatically increasing trend” and the serum total cholesterol result is “decreased”. In the assay on PTP1B, the “Inhibition type (PTP1B)” value was “non-competitive” and the inhibitory constant (Ki) is 3900 nM.
For `Cc1ccc(-n2ncc3c2C(C)(C)[C@@H]2CC[C@]4(C)[C@H](C(=O)C=C5[C@@H]6C[C@@](C)(C(=O)O)CC[C@]6(C)CC[C@]54C)[C@@]2(C)C3)cc1` [FC-122], on PTP1B1–400 (Lineweaver-Burk plot), the “Inhibition type (PTP1B)” value is “uncompetitive”. The same compound gave an inhibition constant (Ki) at PTP1B1–400 (substrate pNPP) of 440 nM. In addition, in assay [1] (setting [3]), the food intake entry is given as “reduced food intake to near-normal levels”. Moreover, the water consumption result in assay [1] (after 14 days of administration) is “decreased water consumption compared to acarbose and FC-114”.

The Ki is a measure of affinity in units of concentration, obtained from inhibition or displacement.
